Assay results reported in patent US20240075087A1, “COMPOSITIONS AND METHODS COMPRISING HEMP EXTRACT FOR THE TREATMENT OF ANIMALS IN NEED” (Portland Technology Holdings LLC, priority 2021, published 2024).
In brackets after ≈: the same amount, converted by molar mass.

Assays:
Assay type in all cases: cell-based, canine
[1] = test system: 17-71 B cell lymphoma cell line; experiment: 48 hours MTT proliferation assay, 17-71; settings: pure compound
Experimental: (§1) 3-(4,5-Dimethylthaizol-2-yl)-2,5-diphenyltetrazolium bromide (MTT) assays are performed on all previously described cell lines; CMT12, HMPOS, D17, Abrams and 17-71. […] Cells are treated with vehicle (methanol or ethanol/DMSO mix) or various concentrations of the CBD, CBDA or CBD-rich hemp extract ranging from 0.42 to 20 μg/mL in serial dilution for 48 hours. MTT assays are performed after 48 hours of treatment by adding 20 μL of MTT dye ([…] filtered 5 mg/mL in phosphate-buffered saline [PBS]) to each well and incubating at 37° C. in 5% CO2 for 2 hours. The media is then aspirated, washed once with 200 μL of PBS and then solubilized in 200 μL of ethanol. Immediate analysis of the optical density of each well is performed using a spectrophotometric plate reader (Epoch; Biotek, Winooski, Vermont) at a wavelength of 570 nm as previously described (e.g., Vega-Avila E and Pugsley M K, An overview of colorimetric assay methods used to assess survival or proliferation of mammalian cells, Proc West Pharmacol Soc., 2011, 54, pp. 10-14 which is incorporated herein by reference in its entirety). The percent proliferating cells of control for each concentration is averaged and reported as a mean+/—SD from triplicate wells over three experiments.
(§2) For CBD, CBDA and hemp extract concentrations needed to obtain a 50% inhibition of cell proliferation (IC50) are then calculated across experiments by Probit analysis using XLFit5 software (IDBS, Guildford, United Kingdom) for reporting the results for each cell line.

[2] = test system: CMT12 mammary gland carcinoma cell line; experiment: 48 hours MTT proliferation assay, CMT12; settings: pure compound
Experimental: as §1, §2

[3] = test system: Abrams osteosarcoma cell line; experiment: 48 hours MTT proliferation assay, Abrams; settings: pure compound
Experimental: as §1, §2

[4] = test system: HMPOS osteosarcoma cell line; experiment: 48 hours MTT proliferation assay, HMPOS; settings: pure compound
Experimental: as §1, §2

CMT12 cells = experiment: Trypan blue exclusion assay, CMT12; settings: 48 hours, vehicle control 3±1%
Experimental: The trypan blue exclusion assay is performed on canine primary dermal fibroblasts (CDF) because of the slow rate of proliferation and low metabolic activity of these normal canine cells, precluding productive MTT assays. The effects of CBD treatments are compared with the results obtained on the 17-71, CMT12 and D17 cell lines for comparative purposes. For the CDF cells, applied cell extracellular matrix (ABM) is applied overnight to 24-well tissue culture-treated plates (Applied Biological Materials [ABM], Richmond, BC, Canada). For all cell lines, cells are plated at a density of 5×10^3 cells per well and incubated until 60% confluent before treatment with methanol vehicle control, 3.75, 7.5, and 15 μg/mL of CBD to cells for 48 hours. Cells are then trypsinized, collected and centrifuged at 1900 g for 10 minutes. With the exception of the 17-71 cell line, cells are detached with Accumax (Invitrogen, Carlsbad, California). The cell pellet is resuspended in 0.1% trypan blue (Sigma Aldrich, St Louis, Missouri) in PBS solution, loaded on a Cell Countess disposable cell counting slide with automatic counting of all positively stained cells in the Countess II Cell Counter under identical settings for each cell line (Invitrogen; ThermoFisher Scientific, Carlsbad, California) using the same parameters for each cell line. All treatments are performed in triplicate and the percent of viable cells are averaged.

17-71 cell line = experiment: Annexin V-FITC apoptosis assay, 17-71; settings: 15 μg/mL CBD, VC 10.1±0.4%
Experimental: (§3) Apoptosis after 4 and 8 hours treatment is measured using Annexin-V staining (Invitrogen Annexin V-FITC staining kit, Carlsbad, California). Briefly, cells are detached with Accumax (Innovative Cell Technologies, San Diego, California), collected and centrifuged for 10 m at 1000 g at 4° C. The pellet is washed once with PBS before resuspension in Annexin Binding Buffer (ABB; 10 mM HEPES, 140 mM NaCl, 2.5 mM CaCl2, pH 7.4) at a density of approximately 1×10^6 cell/mL. […] After the incubation, ABB is added to the cell suspension and kept on ice until fluorescence is measured with the BD FACScalibur flow cytometer using an argon laser (BD Biosciences, Ashland, Oregon). Ten thousand events are collected per sample. Analysis is performed with the FlowJo software (Version 10.7.1. Becton, Dickinson, Ashland, Oregon) by first gating based on the forward- and side-scatter characteristics for each cell line followed by Annexin V-FITC positive cells. Negative fluorescence controls are unstained cells. Three independent replicates are examined for each treatment.

D17 cells = experiment: Annexin V-FITC apoptosis assay, D17; settings: 15 μg/mL CBD, 4 hours, VC 6.5±0.6%
Experimental: as §3

CMT12 and D17 cells = experiment: LC3A/B immunofluorescence; settings: 10 μg/mL CBD, 6 hours
Experimental: CMT12 and D17 adherent cell lines are split into Nunc chamber slides (ThermoFisher Scientific, Rochester, New York) and the cells that are 70% confluent are treated for 6 hours with either methanol control or 10 μg/mL of CBD. Cells are fixed with 4% paraformaldehyde for 1 hour and then permeabilized with PBS containing 0.1% Triton X-100 for 30 minutes. Cells are then washed with PBS and incubated with bovine serum albumin (Sigma Aldrich, St. Louis, Missouri) for 30 minutes and then goat anti-serum (Vector Labs, Burlingame, California) for 1 hour and then washed twice with PBS for 10 minutes while rocking at room temperature. […] Coverslips are mounted using Vectrashield DAPI mounting media (Vector Labs, Burlingame, California) and the images are captured at the same fluorescence intensity for each image at 400 or 600 magnification and processed using an Olympus fluorescent microscope and DP controller software (Olympus Corp., Center Valley, Pennsylvania).

[5] = Canis lupus familiaris, read-out: IC50 (Probit)

C=C(C)[C@@H]1CCC(C)=C[C@H]1c1c(O)cc(CCCCC)cc1O [CBD, cannabidiol]
IC50 ([1]; Canis lupus familiaris, B-cell, read-out: IC50 (Probit)): 2.5 µg/mL (≈ 7.95 µM) | concentrations that significantly diminished proliferation vs vehicle control ([1]; P<0.05): ≥ 2.5 µg/mL | IC50 [2, 5]: 3.5 µg/mL (≈ 11.1 µM) | concentrations that significantly diminished proliferation vs vehicle control ([2]; P<0.05): ≥ 2.5 µg/mL | IC50 [3, 5]: 4.1 µg/mL (≈ 13 µM) | concentrations that significantly diminished proliferation vs vehicle control ([3]; P<0.05): ≥ 5 µg/mL | IC50 [4, 5]: 3.6 µg/mL (≈ 11.4 µM) | concentrations that significantly diminished proliferation vs vehicle control ([4]; P<0.05): ≥ 5 µg/mL | percent trypan blue positive cells (CMT12 cells; 3.75 μg/mL CBD): 4±2% | percent trypan blue positive cells (CMT12 cells; 7.5 μg/mL CBD): 9±3% | percent trypan blue positive cells (CMT12 cells; 15 μg/mL CBD): 87%±8% | Annexin V positive staining cells (17-71 cell line; 4 hours): 31.0±10.8% | Annexin V positive staining cells (17-71 cell line; 8 hours): 79.0±6.1% | Annexin V positive staining cells (D17 cells): 9.4±1.8% | LC3A/B immunofluorescence (CMT12 and D17 cells): numerous discrete punctate intensely staining vesicles
